# Results from US20200338044A1 (PCI Biotech AS, priority 2016, published 2020).
# “Also recorded” adds a separate entry of the source.
# Key:
# TFK-1 cell line [1] = test: Cytotoxicity of gemcitabine without PCI, MTT assay; assay type: cell-based, human
# Description: The cell lines used were TFK-1 and EGI-1, both were obtained from the Department of Cancer Prevention, The Norwegian Radium Hospital, Oslo, Norway. TFK-1 is a human papillary bile duct adenocarcinoma cell line and EGI-1 is a poorly differentiated human bile duct adenocarcinoma cell line. Both cell lines originate from extrahepatic tumours (Saijyo et al., 1995, Tohoku J. Exp. Med., 177:61-71; EGI-1—Cell LINCS Library of Intergrated network-based Cellular Signatures. Available from the website having the URL beginning with “lincs” and ending with “.hms.harvard.edu/db/cells/50181/”), but are quite different both morphologically and physiologically (Xu et al., 2013, Clinical Cancer Research, January 1; 19(1):118-27; Pignochino et al., 2010, BMC Cancer, 10:631).
# The MTT method (tetrazolium dye reduction) was performed 48 h after light exposure with Lumisource. The culture medium was removed and cells were incubated in medium containing 0.25 mg/ml MTT (Sigma) for approximately 3 hours before replacement with 100 μl of 99% dimethylsulfoxide (Sigma). The 96 well plates were set on a shaker for 5 minutes before absorbance was measured at 570 nm with a power wave XS2 (Biotek, VT, USA). Wells without cells incubated with MTT-medium only were used for blank subtraction.
# EGI-1 cell line [2] = test: Cytotoxicity of gemcitabine without PCI, MTT assay; assay type: cell-based, human
# Description: The cell lines used were TFK-1 and EGI-1, both were obtained from the Department of Cancer Prevention, The Norwegian Radium Hospital, Oslo, Norway. TFK-1 is a human papillary bile duct adenocarcinoma cell line and EGI-1 is a poorly differentiated human bile duct adenocarcinoma cell line. Both cell lines originate from extrahepatic tumours (Saijyo et al., 1995, Tohoku J. Exp. Med., 177:61-71; EGI-1-Cell LINCS Library of Intergrated network-based Cellular Signatures. Available from the website having the URL beginning with “[…] ending with “.hms.harvard.edu/db/cells/50181/”), but are quite different both morphologically and physiologically (Xu et al., 2013, Clinical Cancer Research, January 1; 19(1):118-27; Pignochino et al., 2010, BMC Cancer, 10:631).
# TFK-1 cell line [3] = test: PCI with gemcitabine, MTT cytotoxicity assay; assay type: cell-based, human
# Experimental: (§1) Di (monoethanolammonium) meso-tetraphenyl chlorin disulfonate (TPCS2a/Amphinex®) was provided by PCI Biotech AS (Lysaker, Norway). Amphinex batch number: FAMP 1002. TPCS2a (in 3% polysorbate 80, 2.8% mannitol, 50 mM Tris pH 8.5) stock solution (0.4 mg/ml) was kept at 4° C. in aliquots and light protected. All work with the photosensitizer was performed under subdued light.
# (§2) Illumination of the cells was performed by using Lumisource (PCI Biotech, Oslo). This lamp consists of four standard light tubes (18 W/tube, Osram L 18/67), which emit blue light with a main peak at approximately 435 nm and was used for excitation of TPCS2a. The irradiance emitted from the blue light source was 12 mW/cm^2 and varied less than 10% across the illumination area (765 cm^2). The light source was air-cooled during light exposure to keep the irradiance stable and prevent cells from hyperthermia.
# (§3) Cells were seeded in 96-well or 6-well plates (Nunclon, Nunc, Roskilde, Denmark) and allowed to attach at 37° C. overnight. […]
# (§4) The MTT method (tetrazolium dye reduction) was performed 48 h after light exposure with Lumisource. […] The 96 well plates were set on a shaker for 5 minutes before absorbance was measured at 570 nm with a power wave XS2 (Biotek, VT, USA). […]
# EGI-1 cell line [4] = tested on: EGI-1 cell line
# Experimental: as §1, §2, §3, §4
# TFK-1 cells = test: Colony formation assay after PCI treatment; assay type: cell-based, human
# Experimental: Cells (25 000 cells/well) were seeded out in 6 well plates (Nunc) and allowed to adhere overnight and subjected to photochemical treatment described above. The cells were placed in the incubator and the culture medium was replaced with fresh culture medium after 3 days incubation. […] Subsequently, cells were washed in H2O and then dried before being evaluated by visual inspection.
# [5] = tested on: NCI-H460 human lung cancer tumour cells; test: Tumour growth of subcutaneous NCI-H460 xenografts after PCI with gemcitabine; assay type: in vivo, Nude (nu/nu) athymic mice; conditions: for No. of animals alive at the end of study: 10 animals at start
# Experimental: Nude (nu/nu) athymic mice (female, CD-1 nu/nu strain, at least 6 weeks old) were used which have been used extensively to generate human tumour xenografts and remain the experimental method of choice for testing anti-tumour efficacy of new compounds prior to administration in man. The route of administration of the test substances was intravenous. The dose of Amphinex® was 5 mg/kg, based on earlier mouse studies performed by PCI Biotech AS and collaborators.
# There were 6 treatment groups with 10 mice per group. Mice were injected subcutaneously with 7×10^7 cells/mL NCI-H460 tumour cells to allow selection of optimal tumours for inclusion in the study. Tumours of the appropriate size were allocated to the various treatment groups.
# Amphinex® was administered intravenously via a tail vein, using a dose volume of 4 mL/kg.
# Human NCI-H460 non-small cell lung cancer cells (American Type Culture Collection [ATCC], Maryland, USA, or the European Collection of Cell Cultures [ECACC], Porton Down, UK) were harvested from sub-confluent cultures growing in vitro and the number of viable cells determined. Cells were then re-suspended in sterile phosphate buffered saline (PBS) at a concentration of approximately 7×10^7 cells/mL. Nude (nu/nu) athymic mice were injected subcutaneously in the right flank with approximately 7×10^6 NCI-H460 cells in a volume of 0.1 mL. Animals were examined regularly for the appearance of tumours. When measurable tumours had established in the majority of mice, animals were assigned into 6 treatment groups with a target of up to 10 mice per group. Mice received an intravenous injection of Amphinex when the tumours had reached a size such that the tumour volume was approximately in the range 100 to 150 mm^3 72 hours later.
# For tumour illumination each animal was restrained, one at a time, in a metal restraint which allows only the lower flank area, i.e. tumour area plus a 2 mm diameter surrounding area, to be exposed. A 650 nm diode laser (TWI Diode Laser, Quanta System, Italy) was then used to expose the tumour tissue to a light dose of 15 J/cm^2, with a fluence rate of 90 mW/cm^2. Each animal had their tumour exposed to the laser for approximately 167 s, to give the required dose of 15 J/cm^2.
# Tumour size was measured at least twice weekly using digital callipers for up to 4 weeks following illumination or until the tumour size (as specified in the UK Home Office Licence) or other clinical signs necessitated removal of that mouse from the study. Tumour dimensions were recorded (length and width), and tumour volumes calculated using the formula (W^2×L)/2, where W is the […] tumour dimension and L is the longest. Animals were terminated if the tumour size had become excessive or any adverse effects were noted.
# The tumour dimensions measured over the period of the study—length (L, long) and width (W, short) in mm, were recorded and kept as raw data. The mean tumour volumes on the first day of treatment were reported for each group. Calculations of relative tumour volumes and plots of mean tumour growth curves were performed. Body weight data were also obtained.
# [6] = 4 hours exposure, up to 1 mM tested, data not shown
# [7] = gemcitabine 100 nM alone, no PCI
molecule,measurement,setting,value
"Nc1ccn([C@@H]2O[C@H](CO)[C@@H](O)C2(F)F)c(=O)n1 [Gemcitabine, 4-amino-1-(2-deoxy-2,2-difluoro-β-D-erythro-pentofuranosyl)pyrimidin-2(1H)-on]",cytotoxic effect,TFK-1 cell line [1]; [6],only a very modest cytotoxic effect
same,cytotoxicity,"TFK-1 cell line [1]; 72 hours exposure, 3 μM gemcitabine",about 50%
same,cell killing (>90% level),"EGI-1 cell line [2]; 3 000 nM gemcitabine without PCI, 72 hours",this level of cell killing was not obtained
same,cytotoxic effect,EGI-1 cell line [2]; [6],only a very modest cytotoxic effect
same,sensitivity to gemcitabine (cytotoxicity),"EGI-1 cell line [2]; 72 hours exposure, highest dose employed (up to 3 μM)",insensitive
same,cytotoxic effect,TFK-1 cell line [3]; [7],about 50%
same,effect on cell survival,EGI-1 cell line [4]; [7],no effect on cell survival
same,colony forming ability,"TFK-1 cells; gemcitabine 10 nM, PCI illumination time 140 s",substantial colony formation was observed
same,colony forming ability,TFK-1 cells; gemcitabine 33 nM,some colony formation could be observed
same,colony forming ability,TFK-1 cells; gemcitabine 100 nM,unable to form colonies
same,colony forming ability,TFK-1 cells; gemcitabine 330 nM,unable to form colonies
same,effect on tumour growth,"[5]; gemcitabine 200 mg/kg i.v., PCI: Amphinex 5 mg/kg i.v. + 650 nm 15 J/cm^2",no
same,effect on tumour growth,"[5]; gemcitabine 200 mg/kg i.v., PCI: Amphinex 5 mg/kg i.v. + 650 nm 15 J/cm^2, listed as gemcitabine",neither the photochemical treatment alone (PCI alone) nor gemcitabine alone had a significant effect on tumour growth
same,No. of animals alive at the end of study,[5]; gemcitabine 200 mg/kg,5
same,effect on tumour growth,"[5]; gemcitabine 400 mg/kg i.v., PCI: Amphinex 5 mg/kg i.v. + 650 nm 15 J/cm^2",only a very modest; also recorded: neither the photochemical treatment alone (PCI alone) nor gemcitabine alone (Gemcitabine 400 mg/kg) had a significant effect on tumour growth
same,No. of animals alive at the end of study,[5]; gemcitabine 400 mg/kg,6
Di (monoethanolammonium) meso-tetraphenyl chlorin disulfonate [PCI alone],effect on cell survival,"TFK-1 cell line [3]; photochemical treatment alone, 0.4 μg/ml TPCS2a + blue light",only a modest effect on cell survival
same,cells killed,"EGI-1 cell line [4]; photochemical treatment alone, highest light dose",about 50%
same,colony forming ability,"TFK-1 cells; PCI alone, illumination time 140 s",still had the ability to form colonies
same,No. of animals alive at the end of study,"[5]; Amphinex 5 mg/kg + laser, no gemcitabine",2
same,effect on tumour growth,"[5]; Amphinex 5 mg/kg i.v. + laser 15 J/cm^2, without gemcitabine",virtually no effect; also recorded: neither the photochemical treatment alone (PCI alone) nor gemcitabine alone (Gemcitabine 400 mg/kg) had a significant effect on tumour growth
